From patent publication US20110136762A1, “FUNGICIDAL PYRIDAZINES” (E.I. Du Pont de Nemours and Company, priority 2008, published 2011)
Marks after values point to notes of the source that are not given here.

Assays:
Format in all cases: in vivo
Erysiphe graminis = assay: Test A: wheat powdery mildew, preventive spray on wheat seedlings, visual disease rating; details: 100 = 100% disease control, 0 = no disease control relative to controls; for pest or weed control at 200 ppm / pest or weed control at 40 ppm: Blumeria graminis, 192 h
Excerpt: General protocol for preparing test suspensions for Tests A-F: […] The resulting test suspensions were then used in Tests A-F. The test suspensions were sprayed to the point of run-off on the test plants. All results are for 200 ppm (equivalent to a rate of 500 g/ha) except where followed by “*” which indicates 40 ppm. The test suspension was sprayed to the point of run-off on wheat seedlings. The following day the seedlings were inoculated with a spore dust of Erysiphe graminis, (the causal agent of wheat powdery mildew) and incubated in a growth chamber at 20° C. for 8 days, after which time visual disease ratings were made. […] A dash (-) indicates no test results. All results are for 200 ppm except where followed by “*”, which indicates 40 ppm.

[1] = test system: Puccinia recondita f. sp. tritici; assay: Test B: wheat leaf rust, preventive spray on wheat seedlings, visual disease rating; details: 100 = 100% disease control, 0 = no disease control relative to controls; for pest or weed control at 200 ppm / pest or weed control at 40 ppm: 192 h
Excerpt: General protocol for preparing test suspensions for Tests A-F: […] The resulting test suspensions were then used in Tests A-F. The test suspensions were sprayed to the point of run-off on the test plants. All results are for 200 ppm (equivalent to a rate of 500 g/ha) except where followed by “*” which indicates 40 ppm. The test suspension was sprayed to the point of run-off on wheat seedlings. The following day the seedlings were inoculated with a spore suspension of Puccinia recondita f. sp. tritici (the causal agent of wheat leaf rust) and incubated in a saturated atmosphere at 20° C. for 24 h, and then moved to a growth chamber at 20° C. for 7 days, after which time visual disease ratings were made. […] A dash (-) indicates no test results. All results are for 200 ppm except where followed by “*”, which indicates 40 ppm.

Septoria tritici = assay: Test C: wheat leaf blotch, preventive spray on wheat seedlings, visual disease rating; details: 100 = 100% disease control, 0 = no disease control relative to controls; for pest or weed control at 200 ppm / pest or weed control at 40 ppm: Zymoseptoria tritici, 504 h
Excerpt: General protocol for preparing test suspensions for Tests A-F: […] The resulting test suspensions were then used in Tests A-F. The test suspensions were sprayed to the point of run-off on the test plants. All results are for 200 ppm (equivalent to a rate of 500 g/ha) except where followed by “*” which indicates 40 ppm. The test suspension was sprayed to the point of run-off on wheat seedlings. The following day the seedlings were inoculated with a spore suspension of Septoria tritici (the causal agent of wheat leaf blotch) and incubated in saturated atmosphere at 20° C. for 48 h, and moved to a growth chamber at 20° C. for 19 additional days, after which time visual disease ratings were made. […] A dash (-) indicates no test results. All results are for 200 ppm except where followed by “*”, which indicates 40 ppm.

Septoria nodorum = assay: Test D: wheat glume blotch, preventive spray on wheat seedlings, visual disease rating; details: 100 = 100% disease control, 0 = no disease control relative to controls; for pest or weed control at 200 ppm / pest or weed control at 40 ppm: Parastagonospora nodorum
Excerpt: General protocol for preparing test suspensions for Tests A-F: […] The resulting test suspensions were then used in Tests A-F. The test suspensions were sprayed to the point of run-off on the test plants. All results are for 200 ppm (equivalent to a rate of 500 g/ha) except where followed by “*” which indicates 40 ppm. The test suspension was sprayed to the point of run-off on wheat seedlings. The following day the seedlings were inoculated with a spore suspension of Septoria nodorum (the causal agent of wheat glume blotch) and incubated in a saturated atmosphere at 20° C. for 48 h, and then moved to a growth chamber at 20° C. for 7 days, after which time visual disease ratings were made. […] A dash (-) indicates no test results. All results are for 200 ppm except where followed by “*”, which indicates 40 ppm.

Alternaria solani = assay: Test E: tomato early blight, preventive spray on tomato seedlings, visual disease rating; details: 100 = 100% disease control, 0 = no disease control relative to controls; for pest or weed control at 200 ppm / pest or weed control at 40 ppm: Alternaria solani
Excerpt: General protocol for preparing test suspensions for Tests A-F: […] The resulting test suspensions were then used in Tests A-F. The test suspensions were sprayed to the point of run-off on the test plants. All results are for 200 ppm (equivalent to a rate of 500 g/ha) except where followed by “*” which indicates 40 ppm. The test suspension was sprayed to the point of run-off on tomato seedlings. […] A dash (-) indicates no test results. All results are for 200 ppm except where followed by “*”, which indicates 40 ppm.

Botrytis cinerea = assay: Test F: tomato Botrytis, preventive spray on tomato seedlings, visual disease rating; details: 100 = 100% disease control, 0 = no disease control relative to controls; for pest or weed control at 200 ppm / pest or weed control at 40 ppm: Botrytis cinerea
Excerpt: General protocol for preparing test suspensions for Tests A-F: […] The resulting test suspensions were then used in Tests A-F. The test suspensions were sprayed to the point of run-off on the test plants. All results are for 200 ppm (equivalent to a rate of 500 g/ha) except where followed by “*” which indicates 40 ppm. The test suspension was sprayed to the point of run-off on tomato seedlings. The following day the seedlings were inoculated with a spore suspension of Botrytis cinerea (the causal agent of tomato Botrytis) and incubated in saturated atmosphere at 20° C. for 48 h, and then moved to a growth chamber at 24° C. for 3 days, after which time visual disease ratings were made. […] A dash (-) indicates no test results. All results are for 200 ppm except where followed by “*”, which indicates 40 ppm.

## COc1cc(OC)cc(-c2c(-c3ccccc3F)nnc(C)c2-c2c(F)cccc2F)c1 [Compound 22]
Erysiphe graminis; 40 ppm (marked *)
  Test A rating (disease control, wheat powdery mildew): 99* %
[1]; 40 ppm (marked *)
  Test B rating (disease control, wheat leaf rust): 100* %
Septoria tritici; 40 ppm (marked *)
  Test C rating (disease control, wheat leaf blotch): 97* %
Septoria nodorum; 40 ppm (marked *)
  Test D rating (disease control, wheat glume blotch): 84* %
Alternaria solani; 40 ppm (marked *)
  Test E rating (disease control, tomato early blight): 100* %
Botrytis cinerea; 40 ppm (marked *)
  Test F rating (disease control, tomato Botrytis): 95* %

## Cc1nnc(-c2ccccc2F)c(-c2ccc(Cl)cc2)c1-c1c(F)cc(F)cc1F [Compound 23]
Erysiphe graminis; 200 ppm
  Test A rating (disease control, wheat powdery mildew): 99%
[1]; 200 ppm
  Test B rating (disease control, wheat leaf rust): 99%
Septoria tritici; 200 ppm
  Test C rating (disease control, wheat leaf blotch): 97%
Septoria nodorum; 200 ppm
  Test D rating (disease control, wheat glume blotch): 0%
Alternaria solani; 200 ppm
  Test E rating (disease control, tomato early blight): 96%
Botrytis cinerea; 200 ppm
  Test F rating (disease control, tomato Botrytis): 86%

## COc1cc(OC)cc(-c2c(-c3ccccc3F)nnc(C)c2-c2c(F)cc(F)cc2F)c1 [Compound 24, 4-(3,5-dimethoxyphenyl)-3-(2-fluorophenyl)-6-methyl-5-(2,4,6-trifluorophenyl)pyridazine]
Erysiphe graminis; 200 ppm
  pest or weed control at 200 ppm: 100%
[1]; 200 ppm
  pest or weed control at 200 ppm: 100%
Septoria tritici; 200 ppm
  pest or weed control at 200 ppm: 96%
Septoria nodorum; 200 ppm
  pest or weed control at 200 ppm: 100%
Alternaria solani; 200 ppm
  pest or weed control at 200 ppm: 100%
Botrytis cinerea; 200 ppm
  pest or weed control at 200 ppm: 94%

## Cc1nnc(-c2ccccc2F)c(-c2cccc(F)c2)c1-c1c(F)cc(F)cc1F [Compound 25, 3-(2-fluorophenyl)-4-(3-fluorophenyl)-6-methyl-5-(2,4,6-trifluorophenyl)pyridazine]
Erysiphe graminis; 200 ppm
  pest or weed control at 200 ppm: 99%
[1]; 200 ppm
  pest or weed control at 200 ppm: 100%
Septoria tritici; 200 ppm
  pest or weed control at 200 ppm: 96%
Septoria nodorum; 200 ppm
  pest or weed control at 200 ppm: 100%
Alternaria solani; 200 ppm
  pest or weed control at 200 ppm: 100%
Botrytis cinerea; 200 ppm
  pest or weed control at 200 ppm: 98%

## COc1cc(OC)cc(-c2c(-c3ccccc3F)nnc(OC)c2-c2c(F)cc(F)cc2F)c1 [Compound 26, 4-(3,5-dimethoxyphenyl)-3-(2-fluorophenyl)-6-methoxy-5-(2,4,6-trifluorophenyl)pyridazine]
Erysiphe graminis; 200 ppm
  pest or weed control at 200 ppm: 90%
[1]; 200 ppm
  pest or weed control at 200 ppm: 100%
Septoria tritici; 200 ppm
  pest or weed control at 200 ppm: 99%
Septoria nodorum; 200 ppm
  pest or weed control at 200 ppm: 100%
Alternaria solani; 200 ppm
  pest or weed control at 200 ppm: 95%
Botrytis cinerea; 200 ppm
  pest or weed control at 200 ppm: 99%

## COc1cc(OC)cc(-c2c(-c3cc(F)c(F)cc3F)cnnc2-c2ccccc2F)c1 [Compound 27, 4-(3,5-dimethoxyphenyl)-3-(2-fluorophenyl)-5-(2,4,5-trifluorophenyl)pyridazine]
Erysiphe graminis; 200 ppm
  pest or weed control at 200 ppm: 89%
[1]; 200 ppm
  pest or weed control at 200 ppm: 100%
Septoria tritici; 200 ppm
  pest or weed control at 200 ppm: 99%
Septoria nodorum; 200 ppm
  pest or weed control at 200 ppm: 84%
Alternaria solani; 200 ppm
  pest or weed control at 200 ppm: 99%
Botrytis cinerea; 200 ppm
  pest or weed control at 200 ppm: 100%

## COc1cc(OC)cc(-c2c(-c3ccccc3F)nnc(C)c2-c2c(F)cc(OC)cc2F)c1 [Compound 28, 4-(2,6-difluoro-4-methoxyphenyl)-5-(3,5-dimethoxyphenyl)-6-(2-fluorophenyl)-3-methylpyridazine]
Erysiphe graminis; 40 ppm (marked *)
  pest or weed control at 40 ppm: 85%
[1]; 40 ppm (marked *)
  pest or weed control at 40 ppm: 100%
Septoria tritici; 40 ppm (marked *)
  pest or weed control at 40 ppm: 97%
Septoria nodorum; 40 ppm (marked *)
  pest or weed control at 40 ppm: 100%
Alternaria solani; 40 ppm (marked *)
  pest or weed control at 40 ppm: 100%
Botrytis cinerea; 40 ppm (marked *)
  pest or weed control at 40 ppm: 100%

## COc1cc(OC)cc(-c2c(-c3ccccc3F)nnc(C)c2-c2c(F)cc(OCCCN(C)C)cc2F)c1 [Compound 29, 3-[4-[5-(3,5-dimethoxyphenyl)-6-(2-fluorophenyl)-3-methyl-4-pyridazinyl]-3,5-difluorophenoxy]-N,N-dimethyl-1-propanamine]
Erysiphe graminis; 200 ppm
  pest or weed control at 200 ppm: 92%
[1]; 200 ppm
  pest or weed control at 200 ppm: 100%
Septoria tritici; 200 ppm
  pest or weed control at 200 ppm: 98%
Septoria nodorum; 200 ppm
  pest or weed control at 200 ppm: 92%
Alternaria solani; 200 ppm
  pest or weed control at 200 ppm: 99%
Botrytis cinerea; 200 ppm
  pest or weed control at 200 ppm: 99%

## CNCCCOc1cc(F)c(-c2c(C)nnc(-c3ccccc3F)c2-c2cc(OC)cc(OC)c2)c(F)c1 [Compound 30, 3-[4-[5-(3,5-dimethoxyphenyl)-6-(2-fluorophenyl)-3-methyl-4-pyridazinyl]-3,5-difluorophenoxy]-N-methyl-1-propanamine]
Erysiphe graminis; 200 ppm
  pest or weed control at 200 ppm: 89%
[1]; 200 ppm
  pest or weed control at 200 ppm: 100%
Septoria tritici; 200 ppm
  pest or weed control at 200 ppm: 99%
Septoria nodorum; 200 ppm
  pest or weed control at 200 ppm: 98%
Alternaria solani; 200 ppm
  pest or weed control at 200 ppm: 98%
Botrytis cinerea; 200 ppm
  pest or weed control at 200 ppm: 100%

## COc1cc(OC)c(Cl)c(-c2c(-c3ccccc3F)nnc(C)c2-c2c(F)cc(F)cc2F)c1 [Compound 31, 4-(2-chloro-3,5-dimethoxyphenyl)-3-(2-fluorophenyl)-6-methyl-5-(2,4,6-trifluorophenyl)pyridazine]
Erysiphe graminis; 40 ppm (marked *)
  pest or weed control at 40 ppm: 97%
[1]; 40 ppm (marked *)
  pest or weed control at 40 ppm: 100%
Septoria tritici; 40 ppm (marked *)
  pest or weed control at 40 ppm: 99%
Septoria nodorum; 40 ppm (marked *)
  pest or weed control at 40 ppm: 100%
Alternaria solani; 40 ppm (marked *)
  pest or weed control at 40 ppm: 100%
Botrytis cinerea; 40 ppm (marked *)
  pest or weed control at 40 ppm: 100%

## COc1cc(OC)c(Br)c(-c2c(-c3ccccc3F)nnc(C)c2-c2c(F)cc(F)cc2F)c1 [Compound 32]
Erysiphe graminis; 40 ppm (marked *)
  Test A rating (disease control, wheat powdery mildew): 90* %
[1]; 40 ppm (marked *)
  Test B rating (disease control, wheat leaf rust): 100* %
Septoria tritici; 40 ppm (marked *)
  Test C rating (disease control, wheat leaf blotch): 98* %
Septoria nodorum; 40 ppm (marked *)
  Test D rating (disease control, wheat glume blotch): 99* %
Alternaria solani; 40 ppm (marked *)
  Test E rating (disease control, tomato early blight): 99* %
Botrytis cinerea; 40 ppm (marked *)
  Test F rating (disease control, tomato Botrytis): 100* %

## COc1cc(-c2c(-c3ccccc3F)nnc(C)c2-c2c(F)cc(F)cc2F)cc(OC)c1Cl [Compound 33]
Erysiphe graminis; 40 ppm (marked *)
  Test A rating (disease control, wheat powdery mildew): 0* %
[1]; 40 ppm (marked *)
  Test B rating (disease control, wheat leaf rust): 97* %
Septoria tritici; 40 ppm (marked *)
  Test C rating (disease control, wheat leaf blotch): 95* %
Septoria nodorum; 40 ppm (marked *)
  Test D rating (disease control, wheat glume blotch): 0* %
Alternaria solani; 40 ppm (marked *)
  Test E rating (disease control, tomato early blight): 61* %
Botrytis cinerea; 40 ppm (marked *)
  Test F rating (disease control, tomato Botrytis): 99* %

## COc1cc(OC)cc(-c2c(-c3ccccc3)nnc(Cl)c2-c2c(F)cc(F)cc2F)c1 [Compound 34]
Erysiphe graminis; 200 ppm
  Test A rating (disease control, wheat powdery mildew): 99%
[1]; 200 ppm
  Test B rating (disease control, wheat leaf rust): 100%
Septoria tritici; 200 ppm
  Test C rating (disease control, wheat leaf blotch): 100%
Septoria nodorum; 200 ppm
  Test D rating (disease control, wheat glume blotch): 93%
Alternaria solani; 200 ppm
  Test E rating (disease control, tomato early blight): 99%
Botrytis cinerea; 200 ppm
  Test F rating (disease control, tomato Botrytis): 100%
